Data taken from ChEMBL document CHEMBL1201862, “PubChem BioAssay data set” (2004).
Activity calls are given as the source filed them.

How the values were obtained:
[1] = cytotoxicity toward NIH3T3 fibroblasts, dose response, counter-screen, cell-based, ATP luminescence, mouse fibroblasts (AID 2010); assay type: functional;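 also: cells exposed to compound for about 90 hours before reading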
[2] = HeLa cell cytotoxicity, dose response, cytotoxicity control, 24 h, plate reader, powder samples, set 3 (AID 651864); assay type: functional, cell-based
[3] = inhibitors of intracellular T. cruzi replication, confirmation, NIH3T3 host cells, beta-gal luminescence (AID 2044); assay type: functional, cell-based;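 also: intracellular parasites grown in NIH/3T3 mouse fibroblasts as host cells; luminescent beta-galactosidase reporter signal from transgenic T. cruzi replicating inside host cells; inhibitors lower the luminescence signal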
Caspase-3 = target: T1, Caspase-3 (Homo sapiens, UniProt P42574); assay type: functional;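 also: Dose-response selectivity test against caspase-3 for candidate inhibitors of sentrin-specific proteases (SENPs)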
T1 sequence (P42574 whole entry): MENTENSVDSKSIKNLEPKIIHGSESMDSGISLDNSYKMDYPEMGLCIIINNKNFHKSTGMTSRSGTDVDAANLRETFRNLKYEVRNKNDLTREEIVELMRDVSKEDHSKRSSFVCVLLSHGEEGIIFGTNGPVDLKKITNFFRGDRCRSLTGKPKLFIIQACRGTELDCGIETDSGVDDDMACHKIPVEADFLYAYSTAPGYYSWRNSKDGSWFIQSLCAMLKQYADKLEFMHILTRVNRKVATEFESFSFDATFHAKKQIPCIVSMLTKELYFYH

[4] = target: T2, Sentrin-specific protease 7 (Homo sapiens, UniProt Q9BQF6); assay type: functional;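 also: Luminescence-based dose-response confirmation of ultra-high-throughput screening hits, measuring inhibition of SENP7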
T2 sequence (Q9BQF6 whole entry): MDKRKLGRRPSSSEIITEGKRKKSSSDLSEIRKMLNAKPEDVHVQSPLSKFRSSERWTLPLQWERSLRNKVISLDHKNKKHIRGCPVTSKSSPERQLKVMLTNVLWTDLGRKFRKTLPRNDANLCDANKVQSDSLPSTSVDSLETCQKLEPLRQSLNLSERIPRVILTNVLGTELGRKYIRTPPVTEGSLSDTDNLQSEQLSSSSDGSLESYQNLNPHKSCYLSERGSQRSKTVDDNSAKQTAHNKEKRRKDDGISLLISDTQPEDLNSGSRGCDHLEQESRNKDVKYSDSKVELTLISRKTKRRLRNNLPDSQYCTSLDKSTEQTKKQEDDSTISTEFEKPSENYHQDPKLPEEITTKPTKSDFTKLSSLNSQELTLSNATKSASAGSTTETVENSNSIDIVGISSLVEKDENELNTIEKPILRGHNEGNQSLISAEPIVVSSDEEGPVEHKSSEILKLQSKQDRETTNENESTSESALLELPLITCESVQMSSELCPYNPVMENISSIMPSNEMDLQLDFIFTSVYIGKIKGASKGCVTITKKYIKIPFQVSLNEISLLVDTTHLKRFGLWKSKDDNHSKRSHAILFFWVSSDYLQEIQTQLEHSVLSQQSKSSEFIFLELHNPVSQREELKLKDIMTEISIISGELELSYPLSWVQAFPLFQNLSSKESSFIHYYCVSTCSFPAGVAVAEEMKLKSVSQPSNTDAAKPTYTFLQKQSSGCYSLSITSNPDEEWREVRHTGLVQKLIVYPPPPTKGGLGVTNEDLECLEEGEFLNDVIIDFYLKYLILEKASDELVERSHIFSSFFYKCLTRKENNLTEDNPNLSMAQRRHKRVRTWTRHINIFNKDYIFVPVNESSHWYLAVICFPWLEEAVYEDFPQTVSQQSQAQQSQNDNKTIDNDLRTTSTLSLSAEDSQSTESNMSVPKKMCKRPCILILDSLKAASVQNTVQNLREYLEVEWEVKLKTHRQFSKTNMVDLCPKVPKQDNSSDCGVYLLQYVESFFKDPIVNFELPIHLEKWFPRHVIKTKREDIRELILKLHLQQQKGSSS

[5] = target: T3, Sentrin-specific protease 8 (Homo sapiens, UniProt Q96LD8); assay type: functional;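 also: luminescence read-out of SENP8 inhibition, dose-response confirmation following an ultra-high-throughput screen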
T3 sequence (Q96LD8 whole entry): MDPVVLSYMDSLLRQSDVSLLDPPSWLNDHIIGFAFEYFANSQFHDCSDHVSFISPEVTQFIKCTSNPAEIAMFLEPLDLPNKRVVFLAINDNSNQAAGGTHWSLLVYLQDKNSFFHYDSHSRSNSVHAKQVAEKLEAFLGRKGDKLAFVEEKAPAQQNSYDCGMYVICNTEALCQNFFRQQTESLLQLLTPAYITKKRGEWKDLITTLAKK

[6] = target: T4, Oxysterols receptor LXR-beta (Homo sapiens, UniProt P55055); assay type: functional, cell-based
T4 sequence (P55055 whole entry): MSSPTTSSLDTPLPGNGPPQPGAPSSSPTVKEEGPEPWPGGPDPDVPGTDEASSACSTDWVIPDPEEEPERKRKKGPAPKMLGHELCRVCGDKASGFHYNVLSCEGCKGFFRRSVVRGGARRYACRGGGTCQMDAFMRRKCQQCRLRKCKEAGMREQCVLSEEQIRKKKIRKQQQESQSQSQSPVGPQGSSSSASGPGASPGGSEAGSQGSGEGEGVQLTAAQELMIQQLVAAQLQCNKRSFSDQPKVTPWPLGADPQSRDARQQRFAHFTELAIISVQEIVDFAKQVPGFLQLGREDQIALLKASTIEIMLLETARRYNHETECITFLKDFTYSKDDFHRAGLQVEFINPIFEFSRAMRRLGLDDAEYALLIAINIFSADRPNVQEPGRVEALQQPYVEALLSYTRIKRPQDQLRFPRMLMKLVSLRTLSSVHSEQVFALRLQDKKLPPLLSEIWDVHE

[7] = target: T5, Sentrin-specific protease 6 (Homo sapiens, UniProt Q9GZR1); assay type: functional;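 also: Luminescence-based dose-response confirmatory assay of SENP6 inhibition, following up an ultra-high-throughput screen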
T5 sequence (Q9GZR1 whole entry): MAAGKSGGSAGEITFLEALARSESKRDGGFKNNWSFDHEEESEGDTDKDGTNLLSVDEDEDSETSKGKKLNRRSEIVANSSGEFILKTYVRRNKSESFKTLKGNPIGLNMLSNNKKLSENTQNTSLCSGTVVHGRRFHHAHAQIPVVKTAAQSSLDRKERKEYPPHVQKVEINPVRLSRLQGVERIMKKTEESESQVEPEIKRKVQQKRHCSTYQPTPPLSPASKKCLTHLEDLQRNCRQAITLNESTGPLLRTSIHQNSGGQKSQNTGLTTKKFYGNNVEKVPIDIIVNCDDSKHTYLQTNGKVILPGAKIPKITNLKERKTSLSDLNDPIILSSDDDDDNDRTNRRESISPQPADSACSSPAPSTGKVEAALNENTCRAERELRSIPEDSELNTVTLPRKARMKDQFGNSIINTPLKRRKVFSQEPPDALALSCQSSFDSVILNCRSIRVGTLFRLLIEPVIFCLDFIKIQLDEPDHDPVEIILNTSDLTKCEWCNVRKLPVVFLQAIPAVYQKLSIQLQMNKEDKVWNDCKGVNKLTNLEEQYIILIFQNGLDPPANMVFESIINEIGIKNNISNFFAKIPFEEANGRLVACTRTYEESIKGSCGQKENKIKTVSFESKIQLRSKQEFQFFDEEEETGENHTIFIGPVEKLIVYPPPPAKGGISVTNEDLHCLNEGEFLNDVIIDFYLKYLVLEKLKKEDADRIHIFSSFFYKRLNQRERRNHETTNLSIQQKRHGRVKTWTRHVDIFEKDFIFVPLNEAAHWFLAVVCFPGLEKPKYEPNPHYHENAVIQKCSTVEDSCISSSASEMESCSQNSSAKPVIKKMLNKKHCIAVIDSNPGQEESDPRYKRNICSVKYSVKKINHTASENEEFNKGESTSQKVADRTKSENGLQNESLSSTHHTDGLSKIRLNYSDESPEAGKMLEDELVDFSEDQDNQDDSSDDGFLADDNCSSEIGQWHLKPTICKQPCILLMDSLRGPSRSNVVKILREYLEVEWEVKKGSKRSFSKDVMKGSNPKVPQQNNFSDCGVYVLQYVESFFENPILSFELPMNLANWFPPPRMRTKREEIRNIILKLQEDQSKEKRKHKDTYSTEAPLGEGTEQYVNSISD

cells [8] = assay: cells
[9] = IOSE-T80 ovarian epithelial cell cytotoxicity, dose response, cytotoxicity control for PAX8 inhibitor project, plate reader, dry powder samples (AID 743045); assay type: functional, cell-based
INS1 = assay: beta cell apoptosis inhibitors, cytokine rescue, dose response, luminescence, retest (AID 449756); assay type: functional, cell-based; conditions: Rattus norvegicus;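 also: cell death triggered by IL-1 beta plus TNF-alpha plus IFN-gamma mixture; protective hits raise ATP signal compared with cytokine alone wells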
[10] = PAX2 cell-based inhibition, dose response, selectivity assay for PAX8 inhibitor project, plate reader, dry powder samples (AID 743048); assay type: functional;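 also: HEK293 cells carrying a WT1 promoter luciferase reporter driven by expressed Pax2; potency is for inhibition of Pax2 driven reporter signal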
[11] = non-specific cell cytotoxicity, dose response, cytotoxicity control for PAX8 inhibitor project, plate reader, dry powder samples (AID 743021); assay type: functional, cell-based
Paired box protein Pax-8 = Paired box protein Pax-8 (Homo sapiens, UniProt Q06710); assay: inhibitors of PAX8-driven TPO luciferase reporter, dose response, RMG-I cells, cherry-pick (AID 687027); assay type: functional, cell-based;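 also: luciferase reporter driven by Pax8 target thyroperoxidase promoter measured by SteadyGlo luminescence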
[12] = cytotoxicity dependent on PAX8, dose response, cell-based, plate reader, dry powder (AID 743049); assay type: functional
[13] = NIH:OVCAR-3 ovarian cancer cell cytotoxicity, dose response, PAX8 inhibitor project, plate reader, dry powder samples (AID 743044); assay type: functional, cell-based
[14] = A2780 ovarian cancer cell cytotoxicity, dose response, cytotoxicity control, plate reader, dry powder samples (AID 743046); assay type: functional, cell-based
[15] = cytotoxicity in COV362 ovarian cancer cells, dose response, cytotoxicity control for PAX8 inhibitor project, cell-based, plate reader, dry powder, SA12 (AID 743144); assay type: functional
[16] = cytotoxicity in COV434 cells, dose response, cytotoxicity control for PAX8 inhibitor project, cell-based, plate reader, dry powder, SA7 (AID 743145); assay type: functional
[17] = cytotoxicity in OV-90 ovarian cancer cells, dose response, PAX8 inhibitor project, cell-based, plate reader, dry powder, SA8 (AID 743149); assay type: functional
[18] = cytotoxicity in OVCAR4 cells, dose response, cytotoxicity control for PAX8 inhibitor project, cell-based, plate reader, dry powder, SA11 (AID 743150); assay type: functional; conditions: OVCAR-4
[19] = PAX5 activity inhibitors, dose response, selectivity assay for PAX8 inhibitor project, cell-based, plate reader, dry powder samples (AID 743047); assay type: functional;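 also: HEK293 cells carrying a Pax5 driven CD19 promoter luciferase reporter; potency of inhibitors that lower reporter luminescence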
cells [20] = assay: cells; remark: listed apart in the source
[21] = inhibitors of PGC1a acetylation in cells, dose response, cell-based, cherry-picked samples (AID 720514); assay type: functional;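 also: potency may reflect raised or lowered acetylation signal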
[22] = HepG2 cell cytotoxicity, dose response, cytotoxicity control, ATP luminescence, cherry-pick, activator set 2 (AID 1053143); assay type: functional, cell-based
[23] = target: T4, Oxysterols receptor LXR-beta; assay type: functional, cell-based; remark: listed apart in the source

Sequence of Paired box protein Pax-8 (Q06710 whole entry): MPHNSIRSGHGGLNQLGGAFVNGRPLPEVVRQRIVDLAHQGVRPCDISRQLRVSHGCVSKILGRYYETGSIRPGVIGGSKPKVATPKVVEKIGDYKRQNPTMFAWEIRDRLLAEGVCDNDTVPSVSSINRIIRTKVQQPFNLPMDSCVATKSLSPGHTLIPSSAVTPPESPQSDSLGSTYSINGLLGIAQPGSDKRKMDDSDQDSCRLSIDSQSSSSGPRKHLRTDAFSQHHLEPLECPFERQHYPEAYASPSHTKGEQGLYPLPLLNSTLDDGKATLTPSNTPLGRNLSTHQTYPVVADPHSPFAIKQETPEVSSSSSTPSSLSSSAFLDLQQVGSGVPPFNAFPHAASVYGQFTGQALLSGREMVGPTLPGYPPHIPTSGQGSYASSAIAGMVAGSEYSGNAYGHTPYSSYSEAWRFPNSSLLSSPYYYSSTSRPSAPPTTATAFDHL

With `CCC(C)NC(=O)Cc1ccc(-c2ccccc2)cc1` (stereo unspecified) the EC50 [1] was > 60 µM (not active), the AC50 [2] was 141 µM (active) and the EC50 [3] was 0.794 µM (active).
With `Cc1cc(C)nc(Nc2nc(-c3ccccc3)cs2)n1` the IC50 (Caspase-3) was > 100 µM (inactive), the IC50 [4] was 1.89 µM (active) and the IC50 [5] was 3.29 µM (active). The EC50 [6] was > 67.5 µM (inactive), the IC50 [7] was 2.1 µM (active) and the EC50 (cells [8]) was > 67.5 µM (inactive).
With `O=C(Nc1cccc(Cl)c1)Nc1nnc(CSCCOc2ccc(Cl)cc2)s1` the AC50 [9] was 14.6 µM (active), the AC50 (INS1) was 3.05 µM (active) and the AC50 [10] was 8.06 µM (active). The AC50 [11] was 16 µM (active), the AC50 (Paired box protein Pax-8) was 5.94 µM (active) and the AC50 [12] was 5.65 µM (active). For the same compound, the AC50 [13] was 15 µM (active), the AC50 [14] was 6.08 µM (active) and the AC50 [15] was 10.7 µM (active). The AC50 [16] was 12.8 µM (active), the AC50 [17] was 26.1 µM (active) and the AC50 [18] was 22.2 µM (active). For the same compound, the AC50 [19] was 4.51 µM (active).
For `CC(C)N1CCc2c(sc(NC(=O)Cc3ccccc3)c2C#N)C1`, the AC50 (cells [20]) was 10.8 µM (active).
For `CCOc1ccnc(OCC)c1Br`, the AC50 [21] was 32.8 µM (active).
For `Cc1nc2[nH]c(-c3cccs3)nc2cc1Br`, the AC50 [22] was 26 µM (active) and the EC50 [23] was > 67.5 µM (inactive).
